According to patent publication US6660910B1, “Selection marker” (Syngenta Mogen B.V., priority 1997, dated 2003):

Key:
[1] = test system: root segments of Arabidopsis thaliana cv. C24; assay: Arabidopsis root transformation with selection on cyanamide or kanamycin; assay type: cell-based
Procedure: Described below is the method used for transformation of root segments of Arabidopsis thaliana cv. C24 using Agrobacterium tumefaciens. The binary vectors for this transformation method are identical to those described above.
Six mg of Arabidopsis seeds were germinated in a flask containing liquid Germination Medium (GM) under 16 h light period (1700 lux) at 24° C. and a 8 h dark period at 21° C. at 80 rpm. (The contents of various media can be found in Table 4). Roots of 9 days old seedlings were isolated in a sterile petridish and collected in a drop of Germination Medium (GM). Roots were cut in segments of approximately 3-5 mm and approximately 100 explants were spread evenly on a nylon membrane (O 8 cm) which was placed on plates containing Callus Inducing Medium (CIM). The plates were incubated 3 days under the same conditions as described above.
The Agrobacterium strain used in this study harbored a rifampicin selection marker in a C 58 chromosomal background. The construction of the helper strain MOG101 is described by Hood et al. (1993).
Agrobacteria were grown overnight in LB medium with antibiotics (rifampicin 20 mg/l, kanamycin 100 mg/l). The overnight culture was diluted 1:10 in LB without antibiotics and grown for approximately 3 hours. Bacterial suspensions were centrifuged at 1600×g for 15 minutes at room temperature. Bacteria were resuspended in GM and adjusted to OD600=0.1 and used for cocultivation.
The membrane containing approximately 100 explants was incubated for 2 minutes with the Agrobacterium suspension and dried on sterile filter paper to remove excess of bacteria. The membrane with explants are cultured for 48 h on CIM plates. After rinsing the membrane and explants with liquid GM these were incubated on Shoot Induction Medium (SIM) plates containing several concentrations of cyanamide or kanamycin. After 5 days the membrane with the explants was transferred to the same medium (SIM) for subculture. The second subculture was after 2 weeks. Approximately four weeks after cocultivation 60 shoots per cyanamide concentration were excised and placed on plates with Shoot Elongation Medium (SEM) containing 30 mg/l cyanamide. Shoots which were able to root are tested on their transgenic character by testing leaflets and flowers for expression of the gus gene using a histochemical GUS assay.
Three experiments were performed. Shoots obtained from Exp. 98-8 and 98-11 were transferred to rooting medium (SEM) containing 30 mg/litre cyanamide. Shoots obtained from Exp. 98-13 were transferred to rooting medium containing the same concentration as the selection medium (SIM), for results see Table 4a. The shoots obtained from the kanamycin selection (50 mg/litre) were transferred to rooting medium containing 25 mg/litre Kanamycin.

[2] = test system: non-morphogenic cell suspensions of Oryza sativa cv. IR 52; assay: Rice transformation by particle gun with cyanamide or hygromycin selection; assay type: cell-based
Procedure: Described below is the method used for transformation of non-morphogenic cell suspensions of Oryza sativa cv. IR 52 using a particle inflow gun (PIG) according to Finer et al. (Plant Cell Rep. 11, 323-328, 1992).
A long-term, non-morphogenic suspension culture of Oryza sativa cv. IR 52 was subcultured in weekly intervals in liquid LS-4 (Linsmaier and Skoog, Physiol. Plant. 18, 100-127, 1962) medium and maintained on a rotary shaker (110 rpm) at 28° C. in the dark. (The contents of the LS-4 medium can be found in Table Z). 3-4 days after the last subculture 1.5 ml of this cell suspension (appro. 1.5×10^6 cells) were evenly spread on a filter paper (Whatman no 4) which was subsequently placed on solidified LS-4 medium and cultivated in the dark at 28° C. for 24 h and directly used for bombardment thereafter. For microprojectile bombardment a home-made particle inflow gun (PIG) according to Finer et al. (1992) was used. 300 μg tungsten particles coated with either pMOG 617 (35S-gus and 35S-hyg) or pMOG 873 (35S-cah) were loaded on a particle support. The particles were accelerated by a 2.5 bar helium pulse and had to pass a 500 μm metal stop screen, placed 2 cm under the particle support. The suspension cells were placed 15 cm under the particle support. The PIG was evacuated to 30 mbar before bombardment. After bombardment the cells were cultured at 28° C. in the dark for 3 days. Then the filters with the cells were transferred to solid LS-4 medium containing various concentrations of cyanamide or 50 mg/l hygromycinB (see table 6). The subculture was repeated every 9 days. Resistant microcalli that were visible after 4-6 weeks were transferred to fresh LS-4 medium containing the respective selective agent. From two experiments 7+41 calli transformed with pMOG617 were found resistant to hygromycin, while for the transformation with pMOG873 7 calli survived cyanamide 20 mg/l in the first experiment (results from the second experiment not yet available) and 0+4 calli remained viable on 40 mg/l cyanamide. […] The transgenic nature was confirmed by testing parts of the developing callus for the presence of the DNA in the callitransformed with pMOG873.

[3] = pMOG 1156, Experiment 98-8, selection cyanamide 20 mg/litre, rooting medium 30 mg/litre cyanamide
[4] = pMOG 1156, Experiment 98-8, selection cyanamide 30 mg/litre, rooting medium 30 mg/litre cyanamide
[5] = pMOG 1156, Experiment 98-8, selection cyanamide 40 mg/litre, rooting medium 30 mg/litre cyanamide
[6] = pMOG 1156, Experiment 98-8, selection cyanamide 60 mg/litre, rooting medium 30 mg/litre cyanamide
[7] = pMOG 1156, Experiment 98-8, selection cyanamide 80 mg/litre, rooting medium 30 mg/litre cyanamide
[8] = pMOG 1156, Experiment 98-11, selection cyanamide 20 mg/litre, rooting medium 30 mg/litre cyanamide
[9] = pMOG 1156, Experiment 98-11, selection cyanamide 30 mg/litre, rooting medium 30 mg/litre cyanamide
[10] = pMOG 1156, Experiment 98-11, selection cyanamide 40 mg/litre, rooting medium 30 mg/litre cyanamide
[11] = pMOG 1156, Experiment 98-11, selection cyanamide 50 mg/litre, rooting medium 30 mg/litre cyanamide
[12] = pMOG 1156, Experiment 98-11, selection cyanamide 80 mg/litre, rooting medium 30 mg/litre cyanamide
[13] = pMOG 1156, Experiment 98-13, selection cyanamide 20 mg/litre, rooting medium same concentration as selection medium
[14] = pMOG 1156, Experiment 98-13, selection cyanamide 30 mg/litre, rooting medium same concentration as selection medium
[15] = pMOG 1156, Experiment 98-13, selection cyanamide 50 mg/litre, rooting medium same concentration as selection medium
[16] = pMOG 1156, Experiment 98-13, selection cyanamide 60 mg/litre, rooting medium same concentration as selection medium
[17] = pMOG 1156, Experiment 98-13, selection cyanamide 80 mg/litre, rooting medium same concentration as selection medium
[18] = pMOG 1156, Experiment 98-8, selection kanamycin 50 mg/litre, rooting medium 25 mg/litre Kanamycin
[19] = pMOG 1156, Experiment 98-11, selection kanamycin 50 mg/litre, rooting medium 25 mg/litre Kanamycin
[20] = pMOG 1156, Experiment 98-13, selection kanamycin 50 mg/litre, rooting medium 25 mg/litre Kanamycin

Question: What does the source list for `N#CN` [Cyanamide]?
Answer: Speed of shoot regeneration compared with kanamycin ([1]; PMOG 1156, lower cyanamide concentrations): regeneration of shoots was faster than with kanamycin; Regeneration of root explants ([1]; explants transformed with pMOG 410 (without the cah gene), 20 mg/litre cyanamide): already enough to prevent regeneration; Viability of root explants ([1]; explants transformed with pMOG 410, 50 mg/litre cyanamide and higher): not viable and turned completely brown; Callus development of root explants ([1]; explants transformed with pMOG 410, 20 till 40 mg/litre cyanamide): some callus development was observed; Regeneration of root explants ([1]; explants transformed with the cah gene (PMOG 1156), all cyanamide concentrations, even 80 mg/litre): able to regenerate at all cyanamide concentrations; % Shoots rooting [1, 3]: 0%; Nr. of plants (shoots developed into plants and able to root) [1, 3]: 0; % Shoots rooting [1, 4]: 6.3%; Nr. of plants (shoots developed into plants and able to root) [1, 4]: 4; % Shoots rooting [1, 5]: 8.2%; Nr. of plants (shoots developed into plants and able to root) [1, 5]: 5; % Shoots rooting [1, 6]: 8.2%; Nr. of plants (shoots developed into plants and able to root) [1, 6]: 5; % Shoots rooting [1, 7]: 13.8%; Nr. of plants (shoots developed into plants and able to root) [1, 7]: 9; % Shoots rooting [1, 8]: 1.7%; Nr. of plants (shoots developed into plants and able to root) [1, 8]: 1; % Shoots rooting [1, 9]: 3.2%; Nr. of plants (shoots developed into plants and able to root) [1, 9]: 2; % Shoots rooting [1, 10]: 4.5%; Nr. of plants (shoots developed into plants and able to root) [1, 10]: 3; % Shoots rooting [1, 11]: 8.1%; Nr. of plants (shoots developed into plants and able to root) [1, 11]: 5; % Shoots rooting [1, 12]: 15.6%; Nr. of plants (shoots developed into plants and able to root) [1, 12]: 10; % Shoots rooting [1, 13]: 4.8%; Nr. of plants (shoots developed into plants and able to root) [1, 13]: 3; % Shoots rooting [1, 14]: 14.5%; Nr. of plants (shoots developed into plants and able to root) [1, 14]: 9; Nr. of plants (shoots developed into plants and able to root) ([1]; pMOG 1156, Experiment 98-13, selection cyanamide 40 mg/litre, rooting medium same concentration as selection medium): 1; % Shoots rooting [1, 15]: 0%; Nr. of plants (shoots developed into plants and able to root) [1, 15]: 0; % Shoots rooting [1, 16]: 6.O; Nr. of plants (shoots developed into plants and able to root) [1, 16]: 4; % Shoots rooting [1, 17]: 11.4%; Nr. of plants (shoots developed into plants and able to root) [1, 17]: 8; Percentage of GUS expressing plants (% of plants staining blue) ([1]; pMOG 1156, treatment cyanamide 20 mg/litre, C30 in rooting medium): 0^1%; Percentage of GUS expressing plants (% of plants staining blue) ([1]; pMOG 1156, treatment cyanamide 20 mg/litre, rooting medium same conc. as treatment): 0%; Percentage of GUS expressing plants (% of plants staining blue) ([1]; pMOG 1156, treatment cyanamide 30 mg/litre, C30 in rooting medium): 75-100%; Percentage of GUS expressing plants (% of plants staining blue) ([1]; pMOG 1156, treatment cyanamide 30 mg/litre, rooting medium same conc. as treatment): 78%; Percentage of GUS expressing plants (% of plants staining blue) ([1]; pMOG 1156, treatment cyanamide 40 mg/litre, C30 in rooting medium): 40-100%; Percentage of GUS expressing plants (% of plants staining blue) ([1]; pMOG 1156, treatment cyanamide 40 mg/litre, rooting medium same conc. as treatment): 100%; Percentage of GUS expressing plants (% of plants staining blue) ([1]; pMOG 1156, treatment cyanamide 50 mg/litre, C30 in rooting medium): 80%; Percentage of GUS expressing plants (% of plants staining blue) ([1]; pMOG 1156, treatment cyanamide 60 mg/litre, C30 in rooting medium): 80%; Percentage of GUS expressing plants (% of plants staining blue) ([1]; pMOG 1156, treatment cyanamide 60 mg/litre, rooting medium same conc. as treatment): 100%; Percentage of GUS expressing plants (% of plants staining blue) ([1]; pMOG 1156, treatment cyanamide 80 mg/litre, C30 in rooting medium): 67-90%; Percentage of GUS expressing plants (% of plants staining blue) ([1]; pMOG 1156, treatment cyanamide 80 mg/litre, rooting medium same conc. as treatment): 100%; Callus formation ([2]; 50 mg/l cyanamide or higher): No calli were formed; Calli that remained viable ([2]; pMOG873 (35S-cah), 40 mg/l cyanamide, two experiments): 0+4; Calli that survived ([2]; pMOG873 (35S-cah), cyanamide 20 mg/l, first experiment): 7; Surviving calli positive in a PCR experiment on the cah-gene ([2]; pMOG873, 40 mg/l cyanamide): One of the 4

Question: Which “Percentage of GUS expressing plants (% of plants staining blue)” value ([1]; pMOG 410, treatment kanamycin 50 mg/litre, shoots rooted on Kanamycin 25 mg/litre) does the source give for `NC[C@H]1O[C@H](O[C@H]2[C@H](O)[C@@H](O[C@H]3O[C@H](CO)[C@@H](O)[C@H](N)[C@H]3O)[C@H](N)C[C@@H]2N)[C@H](O)[C@@H](O)[C@@H]1O` [Kanamycin] here?
Answer: 100^2%

Question: What about the “% Shoots rooting” value [1, 18] of the same compound?
Answer: 46.8%

Question: What about the “Nr. of plants (shoots developed into plants and able to root)” value (“Nr. of plants” for short) [1, 18] of the same compound?
Answer: 29

Question: And the “% Shoots rooting” value [1, 19]?
Answer: 47.5%

Question: And the “Nr. of plants” value [1, 19]?
Answer: 19

Question: And the “% Shoots rooting” value [1, 20]?
Answer: 20.6%

Question: And the “Nr. of plants” value [1, 20]?
Answer: 14

Question: And the “Percentage of GUS expressing plants (% of plants staining blue)” value ([1]; pMOG 1156, treatment kanamycin 50 mg/litre, column headed C30 in rooting medium)?
Answer: 82-92%
